# According to US6358695B1, “Methods of screening for agonists and antagonists of the HNEAA81 receptor” (SmithKline Beecham Corporation, priority 1997, dated 2002):
# Target: T1, HNEAA81 (Homo sapiens, UniProt Q9BPV8)
# T1 construct: expressed in transfected cells; host or cells: HEK-293 (transient co-transfection)
# T1 sequence (Q9BPV8 1-333 isoform Q9BPV8-2): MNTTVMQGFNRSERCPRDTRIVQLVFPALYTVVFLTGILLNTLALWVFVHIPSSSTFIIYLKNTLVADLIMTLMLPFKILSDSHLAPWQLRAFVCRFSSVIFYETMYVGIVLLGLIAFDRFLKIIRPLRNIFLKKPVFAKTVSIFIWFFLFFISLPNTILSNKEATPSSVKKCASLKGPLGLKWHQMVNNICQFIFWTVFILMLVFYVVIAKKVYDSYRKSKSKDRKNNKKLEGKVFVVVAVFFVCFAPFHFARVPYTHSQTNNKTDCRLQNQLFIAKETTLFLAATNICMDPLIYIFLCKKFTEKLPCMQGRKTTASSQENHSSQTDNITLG
# Assay: FLIPR calcium mobilisation response in HEK-293 cells transiently co-transfected with HNEAA81 and G-proteins
# Type: cell-based
# Settings: for calcium mobilization response (in words): HEK-293 cells transfected with HNEAA81 and the G-proteins
# Procedure: HEK-293 cells were transiently co-transfected with a mammalian expression plasmid encoding HNEAA81 polypeptide, along with cDNAs encoding either the promiscuous G-protein Gal6 or the chimeric G-proteins Gql5 or Gqo5and assayed on FLIPR (Fluorometric Imaging Plate Reader) for a calcium mobilisation response following addition of AP6A or AP5A or d-UDP.
# A dose-dependent (EC50s ˜300 nM), calcium mobilization response was detected following addition of AP6A (response with AP5A or d-UDP not so strong) to cells transfected with HNEAA81 and the G-proteins. […] The cDNAs for both the receptor and the G-proteins had to be expressed in the HEK-293 in order to detect a functional response to these agonists.
calcium mobilization response (in words),"EC50 (HEK-293 cells transfected with HNEAA81 and the G-proteins (Gal6 or Gql5 or Gqo5), read-out: EC50 of dose-dependent calcium mobilization response)",Structure (SMILES)
not so strong,–,"Nc1ncnc2c1ncn2C1OC(COP(=O)(O)OP(=O)(O)OP(=O)(O)OP(=O)(O)OP(=O)(O)OCC2OC(n3cnc4c(N)ncnc43)C(O)C2O)C(O)C1O (stereo not shown) [AP5A, di-adenosine pentaphosphate]"
dose-dependent,~300 nM,"Nc1ncnc2c1ncn2C1OC(COP(=O)(O)OP(=O)(O)OP(=O)(O)OP(=O)(O)OP(=O)(O)OP(=O)(O)OCC2OC(n3cnc4c(N)ncnc43)C(O)C2O)C(O)C1O (stereo not shown) [AP6A, di-adenosine hexaphosphate]"
not so strong,–,O=c1ccn(C2OC(COP(=O)(O)OP(=O)(O)O)CC2O)c(=O)[nH]1 (stereo not drawn) [d-UDP]
